In assay [1] the test system is C57/black 6 mice temporal cortex slices. The experiment in a line: Slice electrophysiology assay (LTP, theta-burst stimulation). In kind it is cell-based. The following applies: 1 μM compound; temporal cortex slices of C57/black 6 mice. The method, then: coronal cortical slices (400 μm) containing temporal cortex from 2- to 3-month-old C57-Black-6 mice male littermates (from Elevage Janvier, FRANCE) are prepared and allowed to recover in oxygenated (95% O2 and 5% CO2) warm (30° C.) artificial cerebrospinal fluid (ACSF) containing 124 mM NaCl, 5 mM KCl, 1.25 mM, NaH2PO4, 1 mM MgCl2, 2 mM CaCl2, 26 mM NaHCO3, and 10 mM dextrose.
a 10 mM DMSO stock solution is prepared for each test compound and 100 μL aliquots are stored at −20° C. On the day of experiment an aliquot is thawed and vortexed for fresh solutions preparation. The final concentration of DMSO is adjusted to 0.1% all solutions, including control ACSF solution. […]
a stimulus is applied every 30 s with an intensity settled at 40% of the maximal amplitude responses. […] Potentiation of synaptic transmission is then monitored for an additional 40 minutes period. […]
following a 10 minutes control recording period (to verify baseline stability), the compound is perfused for 20 minutes. Then, LTP is triggered and the fEPSP amplitude will be recorded for an additional 40 minutes period in the presence of compound.
fEPSP amplitudes are measured as the difference between the baseline (before stimulation) and the maximal peak amplitude. The fEPSP are normalized as a percent of the mean averaged amplitude recorded over a 10 min control period, before compound application. […]

A further assay concerns the target PAK4 (Homo sapiens, UniProt O96013). The experiment in a line: Z'Lyte fluorescence-based (FRET) PAK kinase assay, PAK4. It is filed as biochemical. As to conditions: 5 μM ATP. The method, boiled down: (§1)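 Z'Lyte FRET assay: purified PAK with 2 uM Ser/Thr20 peptide in 50 mM HEPES pH 7.5, 10 mM MgCl2, 1% DMSO, ATP at apparent Km (PAK1 50 μM, PAK2 75 μM, PAK3 100 μM, PAK4 5 μM), 1 h room temperature, then 1 h protease development. Inhibition from 445/520 nm emission ratio; IC50 values.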

A further assay addresses PAK1 (Homo sapiens, UniProt Q13153). In words: Z'Lyte fluorescence-based (FRET) PAK kinase assay, PAK1. In kind it is biochemical. As to conditions: 50 μM ATP. The method in brief:
as §1

Another assay deals with PAK2 (Homo sapiens, UniProt Q13177). In words: Z'Lyte fluorescence-based (FRET) PAK kinase assay, PAK2. It is filed as biochemical. The method, boiled down:
as §1

The target of a further assay is PAK3 (Homo sapiens, UniProt O75914). In words: Z'Lyte fluorescence-based (FRET) PAK kinase assay, PAK3. As to conditions: 100 μM ATP. It is filed as biochemical. As to the method:
A fluorescence-based assay format is used to determine IC50 values of test compounds in vitro. Purified PAK kinase is incubated with ATP, and a test compound at various concentrations and a substrate peptide containing two fluorophores. In a second step, the reaction mix is incubated with a site-specific protease that cleaves non-phosphorylated bat not phosphorylated substrate peptide, disrupting the FRET signal generated by the two fluorophores in the cleaved peptide (Z′Lyte™ Kinase assay platform; Life Technologies).
Reagents: 50 mM HEPES, pH 7.5; 0.01% BRIJ-35; […]; 1 mM EGTA, 2 uM substrate peptide Ser/Thr20 (proprietary Life Technologies Sequence), PAK enzyme [2.42-30.8 ng for PAK1, 0.29-6 ng for PAK2, 1.5-20 ng for PAK3 and 0.1-0.86 ng for PAK4; actual enzyme amounts depend on lot activity of the enzyme preparation]
Test compounds are dissolved in DMSO at various concentrations; the final DMSO concentration in the assay reaction is 1%.
ATP concentration at […] apparent is used in the assay [50 ┌M ATP for PAK1 assay, 75 ┌M ATP for PAK2 assay, 100 μM ATP for PAK3 assay, 5 μM ATP for PAK4 assay] in a total assay volume of 10 μl. Assay reactions are incubated at room temperature for 1 hr. Following the kinase reaction, 5 μl of 1:256 dilution of development solution A (Life Technologies) is added and the reaction mix is incubated for an additional 1 hr at room temperature.
Plates are analyzed in a standard fluorescence plate reader (Tecan or equivalent) using an excitation wavelength of 400 nn and emission wavelengths of 445 nm and 520 nm.
Inhibition of kinase reaction is determined by emission ratio=emission@445 nm/emission@520 nm
A fluorescence-based assay format is used to determine IC50 values of test compounds in vitro. Purified PAK kinase is incubated with ATP, and a test compound at various concentrations and a substrate peptide containing two fluorophores. In a second step, the reaction mix is incubated with a site-specific protease that cleaves non-phosphorylated but not phosphorylated substrate peptide, disrupting the FRET signal generated by the two fluorophores in the cleaved peptide (Z'Lyte™ Kinase assay platform Life Technologies).
Reagents: 50 mM HEPES, pH 7.5; 0.01% BRIJ-35; 10 mM MgCl2; 1 mM EGTA, 2 uM substrate peptide Ser/Thr20 (proprietary Life Technologies Sequence), PAK enzyme [2.42-30.8 ng for PAK1, 0.29-6 ng for PAK2, 1.5-20 ng for PAK3 and 0.1-0.86 ng for PAK4; actual enzyme amounts depend on lot activity of the enzyme preparation]
ATP concentration at Km apparent is used in the assay [50 μMATP for PAK1 assay, 75 µM ATP for PAK2 assay, 100 μM ATP for PAK3 assay, 5 μM ATP for PAK4 assay] in a total assay volume of […] Assay reactions are incubated at room temperature for 1 hr. Following the kinase reaction. […] of 1:256 dilution of development solution A (Life Technologies) is added and the reaction mix is incubated for an additional 1 hr at room temperature.
Plates are analyzed in a standard fluorescence plate reader (Teem or equivalent) using an excitation wavelength of 400 nm and emission wavelengths of 445 nm and 520 nm.

Setting [2] is: Table 1 of Example 29 (own compound numbering).
The mark [3] stands for this setting: Table 1 of Example 29 (own compound numbering), 75 µM ATP.
Where [4] appears, read: Table 1 of Example 100, 75 μM ATP.

Broadly, the IC50 is the concentration at which inhibition is half-maximal. High values mean weaker potency in that assay, low ones greater potency in that assay.

Sequence of PAK2 (Q13177 whole entry): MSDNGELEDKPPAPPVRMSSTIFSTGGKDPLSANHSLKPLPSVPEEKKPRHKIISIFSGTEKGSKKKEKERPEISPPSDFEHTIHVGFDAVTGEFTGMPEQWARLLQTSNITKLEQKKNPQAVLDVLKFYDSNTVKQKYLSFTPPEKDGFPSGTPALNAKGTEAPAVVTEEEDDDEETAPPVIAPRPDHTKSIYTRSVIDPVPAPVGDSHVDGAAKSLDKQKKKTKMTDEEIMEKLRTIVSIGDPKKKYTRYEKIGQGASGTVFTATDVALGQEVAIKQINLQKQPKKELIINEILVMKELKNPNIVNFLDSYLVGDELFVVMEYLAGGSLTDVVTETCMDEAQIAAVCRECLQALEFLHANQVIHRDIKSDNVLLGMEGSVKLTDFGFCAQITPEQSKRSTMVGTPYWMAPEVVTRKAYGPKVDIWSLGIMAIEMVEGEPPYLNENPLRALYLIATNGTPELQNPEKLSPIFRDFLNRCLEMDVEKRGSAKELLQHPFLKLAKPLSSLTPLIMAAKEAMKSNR
Sequence of PAK4 (O96013 whole entry): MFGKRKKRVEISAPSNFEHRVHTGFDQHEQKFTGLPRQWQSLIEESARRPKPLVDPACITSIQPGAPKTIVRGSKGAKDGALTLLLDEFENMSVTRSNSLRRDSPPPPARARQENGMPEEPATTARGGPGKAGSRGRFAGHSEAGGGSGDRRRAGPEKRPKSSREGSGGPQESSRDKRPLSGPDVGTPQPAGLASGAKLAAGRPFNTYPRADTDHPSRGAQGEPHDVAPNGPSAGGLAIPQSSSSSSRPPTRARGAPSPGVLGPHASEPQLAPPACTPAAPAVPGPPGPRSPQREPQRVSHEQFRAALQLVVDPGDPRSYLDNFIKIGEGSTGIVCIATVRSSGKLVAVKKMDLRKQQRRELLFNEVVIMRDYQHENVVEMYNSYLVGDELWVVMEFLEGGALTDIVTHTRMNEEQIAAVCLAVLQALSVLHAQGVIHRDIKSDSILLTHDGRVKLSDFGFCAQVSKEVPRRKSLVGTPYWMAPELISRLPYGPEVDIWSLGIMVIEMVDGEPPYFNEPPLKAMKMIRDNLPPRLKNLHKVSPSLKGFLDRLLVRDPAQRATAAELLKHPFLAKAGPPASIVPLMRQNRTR
Sequence of PAK3 (O75914 whole entry): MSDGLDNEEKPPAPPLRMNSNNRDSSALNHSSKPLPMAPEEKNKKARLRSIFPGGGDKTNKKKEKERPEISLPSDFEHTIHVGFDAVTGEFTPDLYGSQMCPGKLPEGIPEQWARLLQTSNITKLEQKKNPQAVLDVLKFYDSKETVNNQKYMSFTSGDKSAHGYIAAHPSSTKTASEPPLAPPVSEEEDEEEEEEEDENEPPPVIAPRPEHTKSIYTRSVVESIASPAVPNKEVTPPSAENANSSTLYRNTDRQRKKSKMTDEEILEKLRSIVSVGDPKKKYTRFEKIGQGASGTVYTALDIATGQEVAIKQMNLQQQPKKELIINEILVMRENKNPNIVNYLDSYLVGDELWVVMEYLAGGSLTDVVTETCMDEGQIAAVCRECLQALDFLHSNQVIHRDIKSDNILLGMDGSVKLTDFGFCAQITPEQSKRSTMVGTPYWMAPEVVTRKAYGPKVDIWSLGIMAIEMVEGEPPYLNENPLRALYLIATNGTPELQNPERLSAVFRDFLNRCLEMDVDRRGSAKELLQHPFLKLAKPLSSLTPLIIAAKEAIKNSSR
Sequence of PAK1 (Q13153 whole entry): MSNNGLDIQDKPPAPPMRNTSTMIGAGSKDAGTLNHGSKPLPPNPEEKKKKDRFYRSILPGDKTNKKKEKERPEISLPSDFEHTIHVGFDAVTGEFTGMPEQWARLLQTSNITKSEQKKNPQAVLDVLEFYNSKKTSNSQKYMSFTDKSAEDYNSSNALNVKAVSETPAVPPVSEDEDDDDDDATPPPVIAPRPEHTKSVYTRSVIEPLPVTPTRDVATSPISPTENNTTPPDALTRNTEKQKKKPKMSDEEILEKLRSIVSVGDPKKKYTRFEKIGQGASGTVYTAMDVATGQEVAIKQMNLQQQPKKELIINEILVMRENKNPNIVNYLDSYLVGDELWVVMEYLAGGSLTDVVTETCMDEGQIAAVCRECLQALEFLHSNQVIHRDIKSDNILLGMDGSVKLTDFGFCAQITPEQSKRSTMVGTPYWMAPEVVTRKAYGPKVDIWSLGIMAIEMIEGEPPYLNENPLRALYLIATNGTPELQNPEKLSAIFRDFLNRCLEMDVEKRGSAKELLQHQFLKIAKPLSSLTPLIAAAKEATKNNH

Take `COc1cc(Nc2nccc(-c3ccc(NCCN)nc3)n2)cc(OC)c1OC` [Compound A, N^1-(5-(2-(3,4,5-trimethoxyphenylamino)pyrimidin-4-yl)pyridin-2-yl)ethane-1,2-diamine]: the “LTP compared to the baseline in a theta-burst stimulation protocol in the cortex” value in assay [1] is “increased LTP”.

`CN1CCN(c2ccc(Nc3ncc4ccc(=O)n(C5CCCC5)c4n3)cc2)CC1` [Compound G, 8-cyclopentyl-2-(4-(4-methylpiperazin-1-yl)phenylamino)pyrido[2,3-d]pyrimidin-7(8H)-one]: the “LTP compared to the baseline in a theta-burst stimulation protocol in the cortex” value in assay [1] is reported as “increased LTP”.

With `CN1CCN(c2ccc(Nc3ncc4ccc(=O)n(Cc5c(O)cccc5Cl)c4n3)cc2)CC1` [Compound 109], the 50% inhibitory concentration (IC50) at PAK4 (setting [2]) was under 1000 nM; at PAK1 (setting [2]) it was under 1000 nM; against PAK2 (setting [3]) it was under 1000 nM; at PAK3 (setting [2]), 1000 to 10000 nM.

Turning to `CN1CCN(c2ccc(Nc3ncc4ccc(=O)n(Cc5ccccc5OC(F)F)c4n3)cc2)CC1` [Compound 44], the IC50 against PAK4 (Table 1 of Example 100), against PAK1 (Table 1 of Example 100), on PAK2 (setting [4]) and at PAK3 (Table 1 of Example 100) was under 1000 nM in each case.

In the case of `O=c1ccc2cnc(Nc3ccc(OC4CCNCC4)cc3)nc2n1Cc1ccccc1C(F)(F)F` [Compound 12], the IC50 at PAK4 (Table 1 of Example 100), against PAK1 (Table 1 of Example 100), on PAK2 (setting [4]) and against PAK3 (Table 1 of Example 100) was under 1000 nM throughout.

Take `O=c1ccc2cnc(Nc3ccc(N4CCNCC4)c(F)c3)nc2n1Cc1ccccc1-c1ncno1` [Compound 132]: the IC50 against PAK4 (setting [2]) is 1000 to 10000 nM; on PAK1 (setting [2]) it was under 1000 nM; against PAK2 (setting [3]), 1000 to 10000 nM; against PAK3 (setting [2]), 1000 to 10000 nM.

For `Cc1cccnc1Cn1c(=O)ccc2cnc(Nc3ccc(N4CCN(C)CC4)cc3)nc21` [Compound 52], the IC50 against PAK4 (Table 1 of Example 100) is 1000 to 10000 nM; at PAK1 (Table 1 of Example 100) it was 1000 to 10000 nM; against PAK2 (setting [4]), 1000 to 10000 nM; against PAK3 (Table 1 of Example 100) it was over 10000 nM.

On to `CC(c1ccccc1)n1c(=O)ccc2cnc(Nc3ccc(N4CCN(C)CC4)cc3)nc21` (centres unmarked) [Compound 48], for which the IC50 was 1000 to 10000 nM against PAK4 (Table 1 of Example 100), 1000 to 10000 nM against PAK1 (Table 1 of Example 100), 1000 to 10000 nM against PAK2 (setting [4]) and over 10000 nM against PAK3 (Table 1 of Example 100).

Consider `CN1CCN(c2ccc(Nc3ncc4ccc(=O)n(CCc5ccccc5)c4n3)cc2)CC1` [Compound 49], for which the 50% inhibitory concentration (IC50) at PAK4 (Table 1 of Example 100) was under 1000 nM; at PAK1 (Table 1 of Example 100), under 1000 nM; against PAK2 (setting [4]), under 1000 nM; at PAK3 (Table 1 of Example 100) it was 1000 to 10000 nM.

As to `CN(c1ccc(Nc2ncc3ccc(=O)n(Cc4ccccc4C(F)(F)F)c3n2)cc1)C1CCCNC1` (centres unmarked) [Compound 13], the IC50 at PAK4 (Table 1 of Example 100), at PAK1 (Table 1 of Example 100), against PAK2 (setting [4]) and at PAK3 (Table 1 of Example 100) was under 1000 nM each time.

As for `CN1CCN(c2ccc(Nc3ncc4ccc(=O)n(C5CCCc6ccccc65)c4n3)cc2)CC1` (centres unmarked) [Compound 5], the IC50 on PAK4 (Table 1 of Example 100), against PAK1 (Table 1 of Example 100), against PAK2 (setting [4]) and against PAK3 (Table 1 of Example 100) was 1000 to 10000 nM in each case.

These data come from patent US20120270844A1, “METHODS FOR TREATING ALZHEIMER'S DISEASE” (aFRAXis, Inc., priority 2009, published 2012).
